Laboratory results reported in US6855697B1, “Troxerutin with a high content of trihydroxyethylrutoside and process for its preparation” (Negma-Lerads, priority 1998, dated 2005).
Entries after “also recorded” stand apart in the source; their conditions may differ.

Tested on: red blood cell aggregation
Test: Ex vivo inhibition of red blood cell aggregation on human blood
Type: cell-based
Source text: This difference in efficacy was confirmed by the superiority of the enriched troxerutin according to the invention (trihydroxyethylrutoside content in the region of 95%) compared with commercially available troxerutins (content in the region of 84%). The advantage of decreasing the aggregation of red blood cells lies in a reduction in the total blood viscosity, and consequently in better fluidity of the blood. This property is manifested by an increase in the venous return and in the microcirculatory flow rate (increase in the density of the infused capillaries).

Row | SMILES | Inhibition of red blood cell aggregation
1 | C[C@@H]1O[C@@H](OC[C@H]2O[C@@H](Oc3c(-c4ccc(OCCO)c(OCCO)c4)oc4cc(OCCO)cc(O)c4c3=O)[C@H](O)[C@@H](O)[C@@H]2O)[C@H](O)[C@H](O)[C@H]1O [trihydroxyethyl derivative, 7,3′,4′-trihydroxyethylrutoside] | significantly improved; also recorded: more effective than the tetrahydroxyethyl derivative
2 | C[C@@H]1O[C@@H](OC[C@H]2O[C@@H](Oc3c(-c4ccc(OCCO)c(OCCO)c4)oc4cc(OCCO)cc(OCCO)c4c3=O)[C@H](O)[C@@H](O)[C@@H]2O)[C@H](O)[C@H](O)[C@H]1O [tetrahydroxyethyl derivative, 5,7,3′,4′-tetrahydroxyethylrutoside, reference compound] | significantly improved
